Data from PubChem BioAssay (NCI).
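Protocol summary: plate cells (96-well), add compound at 5 concentrations, incubate 48 h, interpolate endpoints linearly. GI50 is the concentration that inhibits growth by half. TGI: total growth inhibition.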 *1 amine or outer side, *2 acyl side, *3 side chain or, on linkers, in order; H or OH if unused. Where a SMILES comes first, the peptide text is derived from it. [ ]: non-standard residue; d: D form. The star is where a group is joined. ξ: configuration not given here. X15 = CCN(CC)c1ccc2cc(N*)c(=O)oc2c1; dIva = CC[C@@](C)(N)C(=O)O; X14 = O=C(OCCN[*:1])[*:2]; Aib = CC(C)(N)C(=O)O; ξP = O=C(O)C1CCCN1; βAla = NCCC(=O)O

Tests used:
Test in all cases: NCI anticancer screen, dose series, 48 h
NCI/ADR-RES ovarian = test system: NCI/ADR-RES ovarian
HT29 colon = test system: HT29 colon
NCI-H226 lung = test system: NCI-H226 lung
PC-3 prostate = test system: PC-3 prostate
UACC-62 melanoma = test system: UACC-62 melanoma
UACC-257 melanoma = test system: UACC-257 melanoma
OVCAR-5 ovarian = test system: OVCAR-5 ovarian
RXF 393 renal = test system: RXF 393 renal

Row | SMILES | GI50 (NCI/ADR-RES ovarian) | TGI (NCI/ADR-RES ovarian) | GI50 (HT29 colon) | TGI (HT29 colon) | GI50 (NCI-H226 lung) | TGI (NCI-H226 lung) | GI50 (PC-3 prostate) | TGI (PC-3 prostate) | GI50 (UACC-62 melanoma) | TGI (UACC-62 melanoma) | GI50 (UACC-257 melanoma) | TGI (UACC-257 melanoma) | GI50 (OVCAR-5 ovarian) | TGI (OVCAR-5 ovarian) | GI50 (RXF 393 renal) | TGI (RXF 393 renal)
1 | Nc1n[nH]c2cccc(C#Cc3cccc(C(=O)Nc4cc(CN5CCOCC5)cc(C(F)(F)F)c4)c3)c12 | 4.59 µM | 23.3 µM | 3.13 µM | 16.2 µM | 1.72 µM | 9.68 µM | 4.39 µM | 19 µM | 1.99 µM | 8.34 µM | 4.63 µM | 18.1 µM | 3.37 µM | 25.7 µM | 2.21 µM | 7.92 µM
2 | CC12CC(OC(=O)[C@]1(C)O)[C@@H]([C@]1(O)CC[C@H]3[C@@H]4C[C@H]5O[C@]56[C@@H](O)C=CC(=O)[C@]6(C)[C@H]4CC[C@@]31C)C2 (stereo not given in full) | – | 68.5 µM | – | 15.2 µM | – | > 100 µM | – | 26.5 µM | – | 37.2 µM | – | 28.4 µM | – | 25.2 µM | – | 8.76 µM
3 | O=C(c1cccnc1)c1cc(-c2ccccn2)c(=O)n2ccccc12 | > 100 µM | > 100 µM | > 100 µM | > 100 µM | > 100 µM | > 100 µM | > 100 µM | > 100 µM | > 100 µM | > 100 µM | > 100 µM | > 100 µM | > 100 µM | > 100 µM | > 100 µM | > 100 µM
4 | CCOC(=O)c1nc(Nc2ccc(Cl)cc2)c2ccccc2n1 | 13.2 µM | 22.9 µM | – | – | – | – | 11.6 µM | > 50 µM | 10 µM | 20.5 µM | 13 µM | 30.6 µM | 10.7 µM | 22.3 µM | 7.35 µM | 16.8 µM
5 | O=C(N/N=C/c1cc([N+](=O)[O-])ccc1O)c1cccc2ccccc12 | 2.32 µM | 51.6 µM | 5.74 µM | > 100 µM | 2.45 µM | 11.5 µM | 6.85 µM | 64.9 µM | 2.98 µM | 26.4 µM | 2.7 µM | 26.9 µM | 6.2 µM | > 100 µM | 4.14 µM | 35.1 µM
6 | O=C(OCCBr)c1ccc(Cl)c([N+](=O)[O-])c1 | 21.4 µM | 53.1 µM | 2.51 µM | 5.14 µM | 17.7 µM | 37.6 µM | 5.23 µM | 12.8 µM | 14.5 µM | 28.5 µM | 9.02 µM | 22.9 µM | 18 µM | 34.5 µM | 15.5 µM | 29.9 µM
7 | CCNCCNc1cc(C2CCCCC2)c(C#N)c2nc3ccccc3n12 | 2.35 µM | 6.82 µM | 1.73 µM | 3.82 µM | 1.71 µM | 3.32 µM | 4.81 µM | 16 µM | 1.9 µM | 3.75 µM | 2.34 µM | 4.38 µM | 2.57 µM | 6.56 µM | 1.7 µM | 3.19 µM
8 | CCCc1cc(=O)n2c(C(=O)Nc3ccccc3OC)c(C(=O)Nc3ccc(F)cc3)sc2n1 | 39.2 µM | > 160 µM | 44.5 µM | > 160 µM | 0.802 µM | 6.96 µM | 3.61 µM | 12.9 µM | 4.24 µM | 22.7 µM | 20.2 µM | 60.2 µM | 69.3 µM | > 160 µM | 5.14 µM | 12.1 µM
9 | c1ccc(CSc2nnc3c4ccccc4c4ccccc4c3n2)cc1 | – | > 100 µM | – | > 100 µM | – | > 100 µM | – | > 100 µM | – | > 100 µM | – | > 100 µM | – | > 100 µM | – | > 79.5 µM
10 | CCN(CC)c1ccc2cc(NC(=O)OCCNC(=O)CCNC(=O)[C@H](CC(C)C)NC(=O)C(C)(C)NC(=O)C(C)(C)NC(=O)[C@H](CC(C)C)NC(=O)CCNC(=O)C(C)(C)NC(=O)[C@H](CC(C)C)NC(=O)CCNC(=O)[C@@](C)(CC)NC(=O)[C@H](C)NC(=O)CCNC(=O)C(C)(C)NC(=O)[C@H](C)NC(=O)[C@@H]3CCCN3C(=O)[C@@](C)(CC)NC(=O)[C@H](Cc3ccccc3)NC(=O)C3CCCN3C(=O)C(C)(C)NC(=O)C3CCCN3C(=O)C(C)(C)NC(C)=O)c(=O)oc2c1 (stereo not given in full) (Ac-[Aib][ξP][Aib][ξP]F[dIva]PA[Aib][βAla]A[dIva][βAla]L[Aib][βAla]L[Aib][Aib]L[βAla][X14]-X15) | 0.176 µM | 0.378 µM | 0.00366 µM | 0.103 µM | 0.00561 µM | 0.0348 µM | 0.00311 µM | 0.0281 µM | 0.00385 µM | 0.0189 µM | 0.00222 µM | 0.0065 µM | 0.00506 µM | 0.116 µM | 0.0049 µM | 0.0173 µM
11 | Cc1c(Cl)cccc1NC1=C(Cl)C(=O)N(Cc2ccccc2)C1=O | 5 µM | 20.9 µM | – | – | 12.1 µM | 38.4 µM | 4.85 µM | 19 µM | 6.15 µM | 19.7 µM | – | – | 17.6 µM | 31.5 µM | 12 µM | 32.7 µM
12 | COCCNc1cc(NC(=O)N2CCCc3cc(CN4CCN(C)CC4=O)c(C=O)nc32)ncc1C#N | > 50 µM | > 50 µM | > 50 µM | > 50 µM | > 50 µM | > 50 µM | > 50 µM | > 50 µM | > 50 µM | > 50 µM | > 50 µM | > 50 µM | > 50 µM | > 50 µM | – | –
13 | FC(F)(F)c1ccc(-c2cnc(Cl)nc2NCc2cc(C(F)(F)F)cc(C(F)(F)F)c2)cc1 | 2.98 µM | > 100 µM | 3.26 µM | > 100 µM | 2.61 µM | > 100 µM | – | – | 3.34 µM | > 100 µM | 2.18 µM | 7.28 µM | 4.52 µM | > 100 µM | 3.15 µM | > 100 µM
14 | COC(=O)C1=C(OC(=O)c2ccc(Cl)cc2)C(C(=O)OC)[C@@]2(O)[C@@H](C(=O)OC)C(c3ccccc3Cl)C[C@@H]1[C@@H]2C(=O)OC (stereo not given in full) | 3.41 µM | > 100 µM | 6.57 µM | > 100 µM | – | – | 37.2 µM | > 100 µM | 2.21 µM | 4.81 µM | 3.52 µM | 22.4 µM | 55.3 µM | > 100 µM | 2.23 µM | 6.96 µM
15 | CC(=O)O[C@H]1CC[C@@]2(C)[C@@H](CC[C@@H]3[C@@H]2CC[C@]2(C)C=C(C=O)C[C@@H]32)C1 | 5.35 µM | > 100 µM | 8.32 µM | 25.6 µM | 28.8 µM | > 100 µM | 6.53 µM | 27.5 µM | – | – | 12.2 µM | 26.3 µM | 13.2 µM | 34.4 µM | – | –
16 | CCCOc1nc(SCCC)nc2c1cnn2-c1ccccc1 | > 100 µM | > 100 µM | – | – | > 100 µM | > 100 µM | 30.7 µM | > 100 µM | > 100 µM | > 100 µM | > 100 µM | > 100 µM | > 100 µM | > 100 µM | 78.9 µM | > 100 µM
